Measured values from patent publication US10087219B2, “Human alpha-defensin 5 variant and uses thereof” (priority 2016, dated 2018).
Positions of bridges follow the written chain, without caps; N, C: chain ends. Residues, ends and D or L forms follow the SMILES beside them. No end group written: not given here. *: point of attachment. Myristoyl = CCCCCCCCCCCCCC(=O)*; Lauroyl = CCCCCCCCCCCC(=O)*

Key:
THP-1 cells = assay: Release of IL-1β mature body from LPS-stimulated THP-1 macrophages (immunoblotting); type: cell-based; settings: LPS 100 ng/ml 3 h, FIG. 4
Procedure: THP-1 cells were cultured with RPMI-1640 culture media added with 10% fetal calf serum, and then inoculated on 24-well plate during logarithmic phase, 10^6 cells per well, added with PMA with final concentration of 100 nM for stimulating for 12 h so that cell adhered wall.
Media was exchanged with […] added with 10% fetal calf serum, and stood for 24 hours.
The following groups were set: blank group, LPS stimulation group, LPS+5 mM ATP group (positive control group), LPS+HD-5 group, LPS+HD-5Myr group, LPS+HD-5Lau group. 100 ng/ml lipopolysaccharide (LPS) was used or not to perform stimulation for 3 h, then gently washed twice with 1640 culture media, and then added or not with HD-5Myr or HD-5Lau with final concentration of 10 μg/ml and 20 μg/ml, or ATP with final concentration of 5 mM, or HD-5 with final concentration of 100 μg/ml and 200 μg/ml; and supernatant of each group was collected.
The proteins in supernatant in same volume were concentrated, lysed with protein lysis solution, and then release conditions of IL-1β mature body for different groups were compared by immunoblotting method.

human red cells = assay: Hemolysis of human red cells; type: cell-based; settings: 25 μg/ml; 4% human red cells, 37° C., 1 h; 10% Triton X-100 = 100% hemolysis; FIG. 3
Procedure: The hemolysis effects of antibacterial peptide HD-5 as well as its variants HD-5Myr and HD-5Lau on human red cell were measured.
Fresh human blood sample was collected, heparinized then centrifuged to take red cell layer;
washed with PBS for 3 times;
to EP tube, HD-5 and its variants with final concentrations of 50 μg/ml and 25 μg/ml were added separately; the positive control was added with 10% Triton X-100 in same volume, while the negative control was added with PBS in same volume.
4% human red cells were added separately, incubated at 37° C. for 1 h;
centrifuged, supernatant in same volume was taken and placed in 96-well plate, OD value at 540 nm was measured; by using the positive control as 100% hemolysis, and using the negative control as 0% hemolysis, the hemolysis rate for each well was calculated: Red cell hemolysis rate %=Test well OD value−negative control well OD valuePositive control well OD value−negative control OD×100%

E. coli ATCC 25922 = assay: Antibacterial activity (LD90, optical density growth kinetics) against E. coli ATCC 25922; type: cell-based, Escherichia coli; settings: concentration required for killing 90% bacteria, 2 h incubation at 37° C.
Procedure: (§1) According to measurement of antibacterial activity of antibacterial peptides, the antibacterial potencies of the variants HD-5Myr, HD-Lau and MyrHD-5 of HD-5 as synthesized in Example 2 as well as natural HD-5 were compared.
(§2) The experiments were carried out according to the method for detecting antibacterial activity of antibacterial peptide as reported by Ericksen et al in 2005 (Ericksen B, et al., Antibacterial activity and specificity of the six human {alpha}-defensins. Antimicrob Agents Chemother, 2005).
(§3) Bacteria were inoculated on LB agar plate, and placed in 37° C. constant temperature incubator until bacterial colonies grew. […] Optical density at 600 nm was measured with ELIASA, 1 OD600=4×10^8 CFU/ml, and the bacteria to be tested were diluted with sterile water to 2×10^6 CFU/ml.
(§4) To a sterile 96-plate, 50 μl of sterile water was added to each well, and then A1 well was added with an antibacterial peptide HD-5 sample diluted to a certain concentration. […] Optical density values at 600 nm were measured every 5 minutes in ELIASA at constant temperature of 37° C.
(§5) The measured optical density value minus the optical density value at time 0, and logarithm thereof was taken. […] According to this linear rule, bactericidal rates for different groups were calculated. […]

S. aureus ATCC 25923 = assay: Antibacterial activity (LD90, optical density growth kinetics) against S. aureus ATCC 25923; type: cell-based, Staphylococcus aureus; settings: concentration required for killing 90% bacteria, 2 h incubation at 37° C.
Procedure: as §1, §2, §3, §4, §5

MRSA-1 = assay: Antibacterial activity (LD90, optical density growth kinetics) against MRSA-1; type: cell-based, methicillin-resistant Staphylococcus aureus; settings: for LD90: MRSA-1 isolated in clinic, concentration required for killing 90% bacteria, 2 h incubation at 37° C.
Procedure: as §1, §2
Bacteria were inoculated on LB agar plate, and placed in 37° C. constant temperature incubator until bacterial colonies grew. Single colony was picked out, inoculated in 5 ml of LB culture media, and shake cultured at constant temperature of 37° C. for 4-6 h. It was then washed with sterile water twice. Optical density at 600 nm was measured with ELIASA, 1 OD600=4×10^8 CFU/ml, and the bacteria to be tested were diluted with sterile water to 2×10^6 CFU/ml.
To a sterile 96-plate, 50 μl of sterile water was added to each well, and then A1 well was added with an antibacterial peptide HD-5 sample diluted to a certain concentration. After being mixed evenly, 50 μl was taken therefrom and added to A2 well, thereby being diluted in multiple proportion manner in order, and 50 μl was sucked out from A6 well and discarded. By using the same method, MyrHD-5, HD-5Myr and HD-5Lau samples were diluted. The control well was 50 μl sterile water. Then, to each well, 50 μl of 2×10^6 CFU/ml bacteria was added, and shake cultured at constant temperature of 37° C. for 2 h. Then, 100 μl of LB culture media with double concentration was added separately. Optical density values at 600 nm were measured every 5 minutes in ELIASA at constant temperature of 37° C.
as §5

[1] = Micellar structure formation by transmission electron microscopy; type: physicochemical; settings: uranyl acetate staining, FIG. 1
Source text: Small amounts of HD-5, HD-5Myr and HD-5Lau samples were taken and dropped on copper grid used for electron microscope, excessive samples were sucked out with filter paper, after being dried at room temperature, uranyl acetate was used for staining.

Row | Compound | hemolysis rate (human red cells) [%] | LD90 (E. coli ATCC 25922) [µg/mL] | LD90 (S. aureus ATCC 25923) [µg/mL] | LD90 (MRSA-1) [µg/mL] | other results
1 | Nc1ncnc2c1ncn2[C@@H]1O[C@H](COP(=O)(O)OP(=O)(O)OP(=O)(O)O)[C@@H](O)[C@H]1O [ATP] |  |  |  |  | Release of IL-1β mature body (THP-1 cells; then 5 mM ATP (positive control)): exhibited release of IL-1β mature body
2 | CCCCCCCCCCCC(=O)NCCCC[C@H](NC(=O)CNC(=O)[C@H](CCCNC(=N)N)NC(=O)[C@@H]1CSSC[C@H](NC(=O)[C@@H](NC(=O)[C@H](C)N)[C@@H](C)O)C(=O)N[C@@H](Cc2ccc(O)cc2)C(=O)N[C@H]2CSSC[C@@H]3NC(=O)[C@H](C(C)C)NC(=O)CNC(=O)[C@H](CO)NC(=O)[C@H](CC(C)C)NC(=O)[C@H](CO)NC(=O)[C@H](CCC(=O)O)NC(=O)[C@H](CCCNC(=N)N)NC(=O)[C@H]([C@@H](C)O)NC(=O)[C@H](C)NC(=O)[C@H](CSSC[C@H](NC(=O)[C@H](CC(C)C)NC(=O)[C@H](CCCNC(=N)N)NC(=O)[C@H](Cc4ccc(O)cc4)NC(=O)[C@H](CC(C)C)NC(=O)[C@H](CCCNC(=N)N)NC(=O)CNC(=O)[C@H](CO)NC(=O)[C@H]([C@@H](C)CC)NC(=O)[C@H](CCC(=O)O)NC3=O)C(=O)N1)NC(=O)[C@H](CCCNC(=N)N)NC(=O)CNC(=O)[C@H]([C@@H](C)O)NC(=O)[C@H](CCCNC(=N)N)NC2=O)C(N)=O [HD-5Lau] (H-ATCYCRTGRCATRESLSGVCEISGRLYRLCCRGK(Lauroyl)-NH2; disulfide 3-31, 5-20, 10-30) | 2.24 |  |  |  | 
3 | CCCCCCCCCCCCCC(=O)NCCCC[C@H](NC(=O)CNC(=O)[C@H](CCCNC(=N)N)NC(=O)[C@@H]1CSSC[C@H](NC(=O)[C@@H](NC(=O)[C@H](C)N)[C@@H](C)O)C(=O)N[C@@H](Cc2ccc(O)cc2)C(=O)N[C@H]2CSSC[C@@H]3NC(=O)[C@H](C(C)C)NC(=O)CNC(=O)[C@H](CO)NC(=O)[C@H](CC(C)C)NC(=O)[C@H](CO)NC(=O)[C@H](CCC(=O)O)NC(=O)[C@H](CCCNC(=N)N)NC(=O)[C@H]([C@@H](C)O)NC(=O)[C@H](C)NC(=O)[C@H](CSSC[C@H](NC(=O)[C@H](CC(C)C)NC(=O)[C@H](CCCNC(=N)N)NC(=O)[C@H](Cc4ccc(O)cc4)NC(=O)[C@H](CC(C)C)NC(=O)[C@H](CCCNC(=N)N)NC(=O)CNC(=O)[C@H](CO)NC(=O)[C@H]([C@@H](C)CC)NC(=O)[C@H](CCC(=O)O)NC3=O)C(=O)N1)NC(=O)[C@H](CCCNC(=N)N)NC(=O)CNC(=O)[C@H]([C@@H](C)O)NC(=O)[C@H](CCCNC(=N)N)NC2=O)C(N)=O [HD-5Myr] (H-ATCYCRTGRCATRESLSGVCEISGRLYRLCCRGK(Myristoyl)-NH2; disulfide 3-31, 5-20, 10-30) | 6.83 |  |  |  | 
4 | Human defensin-5 (ATCYCRTGRCATRESLSGVCEISGRLYRLCCR; disulfide 10-30, 5-20, 3-31; listed as Homo sapiens) [HD-5, the modification template] |  | 6.691 | >12.5 | 5.850 | LD90 against methicillin-resistant Staphylococcus aureus compared with LD90 against Staphylococcus aureus ATCC 25923 (MRSA-1; MRSA versus S. aureus ATCC 25923): far lower; Formation of micellar structure [1]: micellar structure was not observed; Release of IL-1β mature body (THP-1 cells; then peptide at 100 μg/ml and 200 μg/ml): could promote the release of IL-1β mature body
5 | MyrHD-5: 33-residue N-terminally modified HD-5 variant (SEQ ID NO: 3), Gly1 amino group linked to a myristoyl (Myristoyl-GATCYCRTGRCATRESLSGVCEISGRLYRLCCR; disulfide 11-31, 6-21, 4-32) |  | >12.5 | 6.280 | 1.400 | 
